In patent US20260022098A1, “BULLEYACONITINE A DERIVATIVE WITH ANALGESIC ACTIVITY, AND PREPARATION METHOD AND APPLICATION THEREOF” (priority 2023, published 2026):
Where two headings read alike, the source gives them in different places.

What was measured:
[1] = system: Kunming mice; assay: Analgesic activity by acetic acid-induced writhing method (writhing inhibition rate, ED50); format: in vivo; conditions: mice, subcutaneous; for ED50: Probit regression
Procedure, shortened: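 Kunming mice (22±2 g, 1:1 sex, 12 h fasted, 10/group) got compound s.c. (dissolved 1:1 molar with 0.1 mol/L HCl, diluted in saline); 0.7% acetic acid i.p. 15 min later, writhes counted over 15 min. Inhibition rate vs saline blank; ED50 by Probit regression over ≥5 doses.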

[2] = system: LPS-induced RAW 264.7 cells; assay: Griess assay, inhibition of NO release in LPS-induced RAW 264.7 cells; format: cell-based; conditions: Griess method, compound at 30 M (so in the source), 22 h
Method: (§1) The effect of the compound to be tested on viability of RAW 264.7 cells at a concentration of […] was assessed through MTT assay (Methylthiazolyldiphenyl-tetrazolium bromide assay), and the inhibition on NO release in the inflammatory response of LPS-induced RAW 264.7 cells at 30 µM was determined through Griess method. Specific methods were described as follows.
RAW264.7 cells beyond third passage were added to a culture medium and gently pipetted to detach, forming a cell suspension. 10 μL of the cell suspension was applied onto a hemocytometer slide for counting, and cells were seeded into a 96-well plate at a density of 3×10^4 cells per well with 100 μL of the cell suspension per well. After incubated at 37° C. with […] for 24 h, supernatant was removed. The blank group received 100 μL of DMSO (1/1000 dilution) per well, a LPS (lipopolysaccharide) group received 100 μL of DMSO (1/1000 dilution) per well, and the experimental groups received 100 μL of the test samples per well. The LPS group received 1 μg/ml of LPS by […] per well, and the experimental groups received […] of LPS by 3 μg per well. After 22 h, 50 μL of supernatant was transferred into another 96-well plate, added with Griess Reagent I in a NO assay kit by 50 μL per well, then added with Griess Reagent II by 50 μL per well, and subjected to an absorbance test at 562 nm. Nitric oxide (NO) concentration was calculated based on a standard curve, which was specifically as follows: NO inhibition rate (%)=(ODLPS−ODTest)/(ODLPS−ODBlank)×100).

[3] = system: Kunming mice; assay: Calculation of therapeutic index (TI = LD50/ED50); format: in vivo
Method: (3) Calculation of Therapeutic Index (TI)
The therapeutic index of each compound was calculated based on the median effective dose and the median lethal dose, which were specifically as follows: therapeutic index (TI)=median lethal dose (LD50)/median effective dose (ED50).

[4] = system: RAW 264.7 cells; assay: MTT assay, viability of RAW 264.7 cells; format: cell-based; conditions: compound diluted to 30 mol/L (so in the source), 12 h
Method: as §1
An MTT solution (5 mg/mL) was prepared with a PBS buffer, filter-sterilized through a 0.22 μm filter membrane, and stored protected from light at low temperature. Each compound was dissolved in DMSO to prepare a 50 mmol/L stock solution, and stored from light at low (frozen) temperature. The stock solution was diluted to 30 mol/L with DMEM (Dulbecco's modified Eagle's medium) containing 10% FBS (fetal bovine serum). RAW264.7 cells beyond third passage were added to a culture medium and gently pipetted to detach, forming a cell suspension. 10 μL of the cell suspension was applied onto a hemocytometer slide for counting, and cells were seeded into 96-well plates at a density of 6×10^3 cells per well with 100 μL of the cell suspension per well. After incubated at 37° C. with 5% CO2 for 24 h, supernatant was removed. A zero-adjustment group (CO group) received 100 μL of medium per well, the blank group (CK group) received 100 μL of DMSO (1/1000 dilution) per well, and the experimental groups received 100 μL of the test samples per well. After 12 h, supernatant was removed, and […] of MTT solution was added into each well at 120 μL per well. After incubated in COz at a constant temperature for 4 h, supernatant was removed, and DMSO was added into each well by 150 μL per well. The mixture was shaken at 50 r/min for 10 min and subjected to an absorbance test at 492 nm. Relative cell viability (x) was calculated through a formula as follows: relative cell viability (%)=(ODTest−ODCO)/(ODCK−ODCO)×100%.

[5] = system: Kunming mice; assay: Acute toxicity / median lethal dose (LD50) determination, subcutaneous injection; format: in vivo; design: key to Acute toxicity: if death occurred, (+) represented as positive; if no death occurred, (−) represented as negative; conditions: for Acute toxicity: mice administered 20 mg/kg subcutaneously, presence of death within 24 h
Procedure, shortened: (§2)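 Kunming mice (22±2 g, 1:1 male:female, fasted 12 h), 10 per group, given compound subcutaneously at 0.1 mL/10 g in saline after 1:1 molar dissolution in 0.1 mol/L HCl. At least 5 proportional dose groups set from a 20 mg/kg pilot; 24 h survival, LD50 by Probit regression.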

[6] = system: Kunming mice; conditions: reported value used as preliminary screening concentration; cited from earlier work
[7] = Acute toxicity / median lethal dose (LD50) determination, subcutaneous injection; format: in vivo, mice; design: key to Acute toxicity: if death occurred, (+) represented as positive; if no death occurred, (−) represented as negative; conditions: both sexes, Kunming, mouse, in vivo, sc; mice, subcutaneous, survival within 24 h, Probit regression; >X = no death or toxic symptoms at X mg/kg
Procedure, shortened: as §2

[8] = Mus musculus, sc, acetic acid-induced writhing, read-out: ED50
[9] = Mus musculus, sc, dosing concentration 0.05 mg/kg, acetic acid-induced writhing, read-out: Analgesia rate (%) ± SEM

With Bulleyaconitine A [reference compound] the ED50 ([1]; acetic acid-induced writhing) was 0.048 mg/kg, the “Analgesia rate (%) ± SEM” value ([1]; dosing concentration 0.05 mg/kg, acetic acid-induced writhing) was 54.80 ± 1.8 % and the “Analgesia rate: unable to test owing to significant toxicity or death in mice” value ([1]; dosing concentration 0.5 mg/kg) was “−^a”. For the same compound, the “Inflammatory NO inhibition rate” value [2] was 13 ± 6.84 %, the TI [3] was 19.2 and the RAW cell viability [4] was 85.80 ± 7.31 ^ %. The Acute toxicity [5] was “+”, the LD50 ([5]; mice, subcutaneous, survival within 24 h, Probit regression, >X = no death or toxic symptoms at X mg/kg) was 0.92 mg/kg and the “reported median effective dose (ED50)” value [6] was 0.05 mg/kg.

Compound CCN1C[C@]2(COC)CC[C@H](OC)[C@@]34C5C[C@]6(OC(=O)c7cccnc7)[C@@H](OC)C[C@@](OC(C)=O)(C5[C@H]6OC(=O)c5ccc(OC)cc5)C([C@H](OC)C23)[C@@H]14 (stereo partly drawn) [Compound 29] has an ED50 [1, 8] of 1.48 mg/kg, an inhibition in vivo at 0.05 mg/kg [1, 9] of 47.9 ± 1.8% and an inhibition in vivo at 0.5 mg/kg ([1]; Mus musculus, sc, dosing concentration 0.5 mg/kg, acetic acid-induced writhing, read-out: Analgesia rate (%) ± SEM) of 65.6 ± 1.3%. For the same compound, the “Inflammatory NO inhibition rate” value [2] was 20 ± 1.12 %, the TI [3] was 27.9 and the RAW cell viability [4] was 116.43 ± 15.6 ^ %. For the same compound, the Acute toxicity [5] was “−” and the LD50 [7] was 41.2 mg/kg.

With CCO[C@]12C[C@H](OC)[C@@]3(OC(=O)c4ccco4)CC(C1[C@H]3OC(=O)c1ccco1)[C@]13C4[C@@H](OC)C2[C@H]1N(CC)C[C@]4(COC)CC[C@@H]3OC (stereo partly drawn) [Compound 6] the ED50 [1, 8] was 0.069 mg/kg, the inhibition in vivo at 0.05 mg/kg [1, 9] was 59.8 ± 2.3% and the “Inflammatory NO inhibition rate” value [2] was 22 ± 4.41 %. The TI [3] was greater than 8695.7, the RAW cell viability [4] was 92.23 ± 1.29 ns % and the Acute toxicity [5] was “−”. It also gave an LD50 [7] greater than 600 mg/kg.

For CCO[C@]12C[C@H](OC)[C@@]3(OC(=O)c4ccc(F)cc4)CC(C1[C@H]3OC(=O)c1ccc(OC)cc1)[C@]13C4[C@@H](OC)C2[C@H]1N(CC)C[C@]4(COC)CC[C@@H]3OC (stereo partly drawn) [Compound 60], the ED50 [1, 8] was 0.122 mg/kg, the inhibition in vivo at 0.05 mg/kg [1, 9] was 50 ± 1.4% and the “Inflammatory NO inhibition rate” value [2] was 2 ± 2.82 %. The TI [3] was greater than 819.7, the RAW cell viability [4] was 96.09 ± 7.95 ns % and the Acute toxicity [5] was “−”. The LD50 [7] was greater than 100 mg/kg.

In the case of CCO[C@]12C[C@H](OC)[C@@]3(OC(=O)c4cccnc4)CC(C1[C@H]3OC(=O)c1cccnc1)[C@]13C4[C@@H](OC)C2[C@H]1N(CC)C[C@]4(COC)CC[C@@H]3OC (stereo partly drawn) [Compound 27], the ED50 [1, 8] is reported as 0.033 mg/kg, the inhibition in vivo at 0.05 mg/kg [1, 9] is reported as 62 ± 1.6% and the “Inflammatory NO inhibition rate” value [2] is reported as 7 ± 2.16 %. The TI [3] was greater than 18181.8, the RAW cell viability [4] was 87.20 ± 7.66 ^ % and the Acute toxicity [5] was “−”. It also gave an LD50 [7] greater than 600 mg/kg.

In the case of CCO[C@]12C[C@H](OC)[C@@]3(OC(=O)c4ccco4)CC(C1[C@H]3OC(=O)c1ccc(OC)cc1)[C@]13C4[C@@H](OC)C2[C@H]1N(CC)C[C@]4(COC)CC[C@@H]3OC (stereo partly drawn) [Compound 15], the ED50 [1, 8] is reported as 0.073 mg/kg, the inhibition in vivo at 0.05 mg/kg [1, 9] is reported as 57.6 ± 1.3% and the “Inflammatory NO inhibition rate” value [2] is reported as 5 ± 2.17 %. The TI [3] was 773, the RAW cell viability [4] was 104.18 ± 6.16 ns % and the Acute toxicity [5] was “−”. It also gave an LD50 [7] of 56.4 mg/kg.
